Laboratory results reported in US8492310B2, “Herbicidal compositions containing benzoylpyrazole compounds” (priority 2008, dated 2013).
Like-named read-outs stand apart in the source and are kept apart here.

What was measured:
[1] = system: velvetleaf (Abutilon theophrasti MEDIC.); assay: Foliar treatment pot test, visual growth inhibition rate, velvetleaf (AT); type: in vivo
From the text: (§1) When the herbicidal activity in a case where two active ingredients are combined, is larger than the simple sum of the respective herbicidal activities of the two active ingredients (the expected activity), it is called a synergistic effect. The activity expected by the combination of two active ingredients can be calculated as follows (Colby S. R., “Weed”, vol. 15, p. 20-22, 1967). E=α+β−(α×β÷100) where
(§2) Upland field soil was put into a 1/1,000,000 hectare pot, and seeds of various plants (barnyardgrass (Echinochloa crus-qalli L.), crabgrass (Digitaria sanguinalis L.), giant foxtail (Setaria faberi Herrm.), velvetleaf (Abutilon theophrasti MEDIC.) and prickly sida (Sida spinosa L.)) were sown. When the respective plants reached predetermined leaf stage, herbicidal compositions in predetermined amounts were diluted with water in an amount corresponding to 300 L/ha and applied for foliar treatment by a small sprayer.
(§3) Further, in accordance with the above Colby's formula, the growth inhibition rate (calculated value) was calculated. In Tables, with respect to the compound Q, Compound Nos. in Table 1 are described, and with respect to other herbicidal compounds, common names are described. Further, in Tables, barnyardgrass is represented by “EC”, crabgrass by “DS”, giant foxtail by “SF”, velvetleaf by “AT”, and prickly sida by “SS”.

[2] = system: crabgrass (Digitaria sanguinalis L.); assay: Foliar treatment pot test, visual growth inhibition rate, crabgrass (DS); type: in vivo
From the text: as §1, §2, §3

[3] = Abutilon theophrasti, foliar, 552 h, 3.0-3.5 leaf stage, 23 DAT, read-out: Growth inhibition rate (%) of AT Measured value
[4] = Digitaria sanguinalis, foliar, 552 h, 4.0-5.1 leaf stage, 23 DAT, read-out: Growth inhibition rate (%) of DS Measured value

In the case of O=C(O)COc1ccc(Cl)cc1Cl [2,4-D], the “Growth inhibition rate (%) of AT Measured value” ([1]; 4.2-4.3 leaf stage, 20 DAT, 25 g/ha) is reported as 45%.
CCc1cccc(CC)c1N(COC)C(=O)CCl [Alachlor, alachlor] gave an inhibition at 300 g/ha ([1]; Abutilon theophrasti, foliar, 504 h, 3.8-4.4 leaf stage, 21 DAT, read-out: Growth inhibition rate (%) of AT Measured value) of 0% and an inhibition at 300 g/ha ([2]; Digitaria sanguinalis, foliar, 504 h, 5.0-5.5 leaf stage, 21 DAT, read-out: Growth inhibition rate (%) of DS Measured value) of 10%.
Work on CC(C)N1C(=O)c2ccccc2NS1(=O)=O [Bentazone-sodium, bentazone-sodium] yielded an inhibition at 100 g/ha ([1]; Abutilon theophrasti, foliar, 528 h, 4.1-4.5 leaf stage, 22 DAT, 100 g/ha, read-out: Growth inhibition rate (%) of AT Measured value) of 0%, an inhibition at 200 g/ha ([1]; Abutilon theophrasti, foliar, 552 h, 3.0-3.5 leaf stage, 23 DAT, 200 g/ha, read-out: Growth inhibition rate (%) of AT Measured value) of 30% and an inhibition at 200 g/ha ([2]; Digitaria sanguinalis, foliar, 528 h, 4.0-5.0 leaf stage, 22 DAT, 200 g/ha, read-out: Growth inhibition rate (%) of DS Measured value) of 0%. For the same molecule, the inhibition at 200 g/ha ([2]; Digitaria sanguinalis, foliar, 552 h, 4.0-5.1 leaf stage, 23 DAT, 200 g/ha, read-out: Growth inhibition rate (%) of DS Measured value) was 0%.
Molecule CCOC(=O)C(Cl)Cc1cc(-n2nc(C)n(C(F)F)c2=O)c(F)cc1Cl (stereo not shown) [Carfentrazone-ethyl, carfentrazone-ethyl] has an inhibition at 15 g/ha ([1]; Abutilon theophrasti, foliar, 336 h, read-out: Growth inhibition rate (%) of AT Measured value, 3.0-4.0 leaf stage, 14 DAT, 15 g/ha) of 98%, an inhibition at 7 g/ha ([1]; Abutilon theophrasti, foliar, 504 h, read-out: Growth inhibition rate (%) of AT Measured value, 3.0-3.5 leaf stage, 21 DAT, 7 g/ha) of 99% and an inhibition at 15 g/ha ([2]; Digitaria sanguinalis, foliar, 336 h, read-out: Growth inhibition rate (%) of DS Measured value, 4.0-5.0 leaf stage, 14 DAT, 15 g/ha) of 5%. It also gave an inhibition at 15 g/ha ([2]; Digitaria sanguinalis, foliar, 384 h, read-out: Growth inhibition rate (%) of DS Measured value, 4.0-5.0 leaf stage, 16 DAT, 15 g/ha) of 0%.
O=C(O)c1nc(Cl)ccc1Cl [Clopyralid, clopyralid] was tested, and the inhibition at 300 g/ha ([1]; Abutilon theophrasti, foliar, 528 h, 4.1-4.5 leaf stage, 22 DAT, read-out: Growth inhibition rate (%) of AT Measured value) was 40%, the inhibition at 300 g/ha [1, 3] was 35% and the inhibition at 300 g/ha ([2]; Digitaria sanguinalis, foliar, 528 h, 4.0-5.0 leaf stage, 22 DAT, read-out: Growth inhibition rate (%) of DS Measured value) was 0%. It also gave an inhibition at 300 g/ha [2, 4] of 0%.
With CC(C)N(C(=O)COc1nnc(C(F)(F)F)s1)c1ccc(F)cc1 [Flufenacet] the inhibition at 300 g/ha [1, 3] was 0%, the inhibition at 200 g/ha ([2]; Digitaria sanguinalis, foliar, 480 h, 5.0-5.2 leaf stage, 20 DAT, 200 g/ha, read-out: Growth inhibition rate (%) of DS Measured value) was 0% and the inhibition at 300 g/ha [2, 4] was 0%.
CP(=O)(O)CCC(N)C(=O)O (stereo not shown) [Glufosinate-ammonium, glufosinate-ammonium] showed an inhibition at 200 g/ha ([1]; Abutilon theophrasti, foliar, 528 h, read-out: Growth inhibition rate (%) of AT Measured value, 4.1-4.5 leaf stage, 22 DAT, 200 g/ha) of 10%, an inhibition at 200 g/ha ([1]; Abutilon theophrasti, foliar, 576 h, read-out: Growth inhibition rate (%) of AT Measured value, 3.2-4.1 leaf stage, 24 DAT, 200 g/ha) of 30% and an inhibition at 100 g/ha ([2]; Digitaria sanguinalis, foliar, 528 h, read-out: Growth inhibition rate (%) of DS Measured value, 4.0-5.0 leaf stage, 22 DAT, 100 g/ha) of 0%.
N.O=C(O)CNCP(=O)(O)O [Glyphosate-ammonium, glyphosate-ammonium] was tested, and the “Growth inhibition rate (%) of AT Measured value” ([1]; 3.5-4.3 leaf stage, 14 DAT, 100 g/ha) was 30%, the “Growth inhibition rate (%) of AT Measured value” ([1]; 3.5-4.3 leaf stage, 21 DAT, 200 g/ha) was 15% and the “Growth inhibition rate (%) of DS Measured value” ([2]; 5.0-5.5 leaf stage, 21 DAT, 100 g/ha) was 10%.
In the case of O=C(O)CNCP(=O)([O-])O.[K+] [Glyphosate-potassium], the “Growth inhibition rate (%) of DS Measured value” ([2]; 4.0-4.2 leaf stage, 20 DAT, 62.5 g/ha) is reported as 0%, the “Growth inhibition rate (%) of DS Measured value” ([2]; 4.0-4.2 leaf stage, 20 DAT, 125 g/ha) is reported as 5% and the “Growth inhibition rate (%) of DS Measured value” ([2]; 4.0-4.2 leaf stage, 20 DAT, 250 g/ha) is reported as 20%.
In the case of COC(=O)c1c(Cl)nn(C)c1S(=O)(=O)NC(=O)Nc1nc(OC)cc(OC)n1 [Halosulfuron-methyl], the inhibition at 20 g/ha ([2]; Digitaria sanguinalis, foliar, 336 h, read-out: Growth inhibition rate (%) of DS Measured value, 5.0-5.5 leaf stage, 14 DAT, 20 g/ha) is reported as 0%.
Work on CON(C)C(=O)Nc1ccc(Cl)c(Cl)c1 [Linuron, linuron] yielded an inhibition at 250 g/ha ([1]; Abutilon theophrasti, foliar, 336 h, 3.5-4.3 leaf stage, 14 DAT, read-out: Growth inhibition rate (%) of AT Measured value) of 85%, an inhibition at 250 g/ha ([1]; Abutilon theophrasti, foliar, 576 h, 3.2-4.1 leaf stage, 24 DAT, read-out: Growth inhibition rate (%) of AT Measured value) of 40% and an inhibition at 250 g/ha ([2]; Digitaria sanguinalis, foliar, 336 h, 5.0-5.5 leaf stage, 14 DAT, 250 g/ha, read-out: Growth inhibition rate (%) of DS Measured value) of 30%.
For CCOC(=O)OC(C)Oc1c(C(=O)c2ccc(S(C)(=O)=O)c(OCCOC)c2C)cnn1C (stereo not shown) [NO. 2], the “Growth inhibition rate (%) of AT Measured value” ([1]; 4.0-4.3 leaf stage, 22 DAT, 3.75 g/ha) was 0%.
Work on CCC(CC)Nc1c([N+](=O)[O-])cc(C)c(C)c1[N+](=O)[O-] [Pendimethalin, pendimethalin] yielded an inhibition at 100 g/ha ([1]; Abutilon theophrasti, foliar, 312 h, 3.3-4.2 leaf stage, 13 DAT, 100 g/ha, read-out: Growth inhibition rate (%) of AT Measured value) of 25%, an inhibition at 125 g/ha ([1]; Abutilon theophrasti, foliar, 480 h, 4.2-4.3 leaf stage, 20 DAT, 125 g/ha, read-out: Growth inhibition rate (%) of AT Measured value) of 20% and an inhibition at 250 g/ha ([1]; Abutilon theophrasti, foliar, 480 h, 4.2-4.3 leaf stage, 20 DAT, read-out: Growth inhibition rate (%) of AT Measured value) of 38%. It also gave an inhibition at 62.5 g/ha ([2]; Digitaria sanguinalis, foliar, 480 h, 4.5-5.2 leaf stage, 20 DAT, 62.5 g/ha, read-out: Growth inhibition rate (%) of DS Measured value) of 0%, an inhibition at 125 g/ha ([2]; Digitaria sanguinalis, foliar, 480 h, 4.5-5.2 leaf stage, 20 DAT, 125 g/ha, read-out: Growth inhibition rate (%) of DS Measured value) of 0% and an inhibition at 250 g/ha ([2]; Digitaria sanguinalis, foliar, 480 h, 4.5-5.2 leaf stage, 20 DAT, 250 g/ha, read-out: Growth inhibition rate (%) of DS Measured value) of 0%.
In the case of CCOCCN(C(=O)CCl)C(=C(C)C)c1ccccc1 [Pethoxamid, pethoxamid], the “Growth inhibition rate (%) of AT Measured value” ([1]; 3.3-4.2 leaf stage, 13 DAT, 200 g/ha) is reported as 0%, the “Growth inhibition rate (%) of DS Measured value” ([2]; 3.6-3.8 leaf stage, 20 DAT, 100 g/ha) is reported as 0% and the “Growth inhibition rate (%) of DS Measured value” ([2]; 3.6-3.8 leaf stage, 20 DAT, 200 g/ha) is reported as 0%. For the same molecule, the “Growth inhibition rate (%) of DS Measured value” ([2]; 3.6-3.8 leaf stage, 20 DAT, 400 g/ha) was 0% and the “Growth inhibition rate (%) of DS Measured value” ([2]; 4.4-5.0 leaf stage, 13 DAT, 200 g/ha) was 0%.
CCc1cc(C)cc(CC)c1-c1c(OC(=O)C(C)(C)C)n2n(c1=O)CCOCC2 [Pinoxaden] gave an inhibition at 25 g/ha ([1]; Abutilon theophrasti, foliar, 504 h, AT 4.0-4.3 leaf stage, 21 DAT, active ingredient 25 g/ha, read-out: Growth inhibition rate (%) of AT Measured value) of 0%, an inhibition at 50 g/ha ([1]; Abutilon theophrasti, foliar, 504 h, AT 4.0-4.3 leaf stage, 21 DAT, active ingredient 50 g/ha, read-out: Growth inhibition rate (%) of AT Measured value) of 0% and an inhibition at 100 g/ha ([1]; Abutilon theophrasti, foliar, 504 h, AT 4.0-4.3 leaf stage, 21 DAT, active ingredient 100 g/ha, read-out: Growth inhibition rate (%) of AT Measured value) of 0%. For the same molecule, the inhibition at 25 g/ha ([2]; Digitaria sanguinalis, foliar, 504 h, 4.0-5.1 leaf stage, 21 DAT, 25 g/ha, read-out: Growth inhibition rate (%) of DS Measured value) was 70%, the inhibition at 50 g/ha ([2]; Digitaria sanguinalis, foliar, 504 h, 4.0-5.1 leaf stage, 21 DAT, 50 g/ha, read-out: Growth inhibition rate (%) of DS Measured value) was 90% and the inhibition at 100 g/ha ([2]; Digitaria sanguinalis, foliar, 504 h, 4.0-5.1 leaf stage, 21 DAT, 100 g/ha, read-out: Growth inhibition rate (%) of DS Measured value) was 70%.
CS(=O)(=O)c1ccc(C(=O)C2C(=O)CCCC2=O)c(Cl)c1 [sulcotrione] was tested, and the inhibition at 25 g/ha ([1]; Abutilon theophrasti, foliar, 480 h, read-out: Growth inhibition rate (%) of AT Measured value, 4.0-4.2 leaf stage, 20 DAT, 25 g/ha) was 40%, the inhibition at 50 g/ha ([1]; Abutilon theophrasti, foliar, 480 h, read-out: Growth inhibition rate (%) of AT Measured value, 4.0-4.2 leaf stage, 20 DAT, 50 g/ha) was 60% and the inhibition at 100 g/ha ([1]; Abutilon theophrasti, foliar, 480 h, read-out: Growth inhibition rate (%) of AT Measured value, 4.0-4.2 leaf stage, 20 DAT, 100 g/ha) was 95%.
